The results in this text go back to ChEMBL document CHEMBL5465560, “Selectivity Literature for EUbOPEN Chemogenomic Library” (2024).

Test [1] concerns the target Serine/threonine-protein kinase PAK 6 (Homo sapiens) (UniProt Q9NQU5). As to the kind of experiment: Selectivity interaction (Ambit KINOMEscan and KiNATiv profiling in Jurkat cells) EUB0000090b PAK6. Type of test: cell-based. Particulars: at 1 µM.
Test [2] concerns the target Phosphatidylinositol 4-phosphate 5-kinase type-1 alpha (Homo sapiens) (UniProt Q99755). In words: Selectivity interaction (KinomeScan (DiscoverX)) EUB0000666a PIP5K1A. Particulars: at 10 µM.
Test [3] deals with Serine/threonine-protein kinase 38-like (Homo sapiens) (UniProt Q9Y2H1). As to the kind of experiment: Selectivity interaction (KinomeScan (DiscoverX)) EUB0000229b STK38L. The following applies: at 10 µM.
The target in test [4] is Homeodomain-interacting protein kinase 2 (Homo sapiens, UniProt Q9H2X6). As to the kind of experiment: Selectivity interaction (KinomeScan (DiscoverX)) EUB0000655a HIPK2. Particulars: at 10 µM.
The target of test [5] is Tyrosine-protein kinase Fgr (Homo sapiens) (UniProt P09769). As to the kind of experiment: Selectivity interaction (ActivX KiNativ screen (ex vivo kinase selectivity in human PBMCs)) EUB0001619a FGR. In kind it is cell-based. Particulars: PBMC, at 1 µM.
Test [6] deals with T1, Mitogen-activated protein kinase kinase kinase kinase 2 (Homo sapiens) (UniProt Q12851).
T1 sequence (whole entry): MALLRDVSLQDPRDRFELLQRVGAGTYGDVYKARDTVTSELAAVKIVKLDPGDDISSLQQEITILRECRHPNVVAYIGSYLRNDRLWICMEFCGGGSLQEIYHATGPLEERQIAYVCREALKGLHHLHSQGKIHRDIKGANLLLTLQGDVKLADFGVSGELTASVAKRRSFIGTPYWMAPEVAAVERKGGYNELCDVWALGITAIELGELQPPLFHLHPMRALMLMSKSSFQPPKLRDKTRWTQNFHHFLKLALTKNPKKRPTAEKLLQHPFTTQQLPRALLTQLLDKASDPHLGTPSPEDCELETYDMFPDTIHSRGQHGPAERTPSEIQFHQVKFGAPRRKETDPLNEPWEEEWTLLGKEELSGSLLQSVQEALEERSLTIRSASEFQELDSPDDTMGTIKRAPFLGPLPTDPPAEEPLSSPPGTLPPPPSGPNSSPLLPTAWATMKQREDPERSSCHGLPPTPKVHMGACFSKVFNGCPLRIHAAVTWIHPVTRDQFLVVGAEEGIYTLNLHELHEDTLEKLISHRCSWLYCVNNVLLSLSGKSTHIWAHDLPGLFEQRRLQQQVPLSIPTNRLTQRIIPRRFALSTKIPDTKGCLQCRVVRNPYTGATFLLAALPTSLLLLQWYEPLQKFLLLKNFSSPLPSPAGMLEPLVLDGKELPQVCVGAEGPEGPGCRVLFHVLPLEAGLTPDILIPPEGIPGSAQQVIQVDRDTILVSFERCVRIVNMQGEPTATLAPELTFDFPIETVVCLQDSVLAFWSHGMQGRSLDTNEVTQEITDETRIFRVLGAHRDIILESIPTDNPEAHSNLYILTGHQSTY
As to the kind of experiment: Selectivity interaction (Kinase panel (literature)) EUB0001199aCl MAP4K2. The following applies: at 1 µM.

Test [7] addresses T2, Dual specificity mitogen-activated protein kinase kinase 6 (Homo sapiens) (UniProt P52564).
T2 sequence (whole entry): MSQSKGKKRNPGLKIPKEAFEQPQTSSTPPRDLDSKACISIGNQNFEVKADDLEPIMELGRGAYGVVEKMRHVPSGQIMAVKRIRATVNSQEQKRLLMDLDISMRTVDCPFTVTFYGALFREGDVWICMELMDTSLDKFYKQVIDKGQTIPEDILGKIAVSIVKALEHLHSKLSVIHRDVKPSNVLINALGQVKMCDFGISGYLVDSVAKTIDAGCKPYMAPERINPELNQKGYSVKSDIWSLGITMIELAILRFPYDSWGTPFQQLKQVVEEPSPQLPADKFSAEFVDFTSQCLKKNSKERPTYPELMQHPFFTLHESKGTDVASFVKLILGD
As to the kind of experiment: Selectivity interaction (Kinase panel (Invitrogen)) EUB0000639a MAP2K6. The following applies: at 200 nM.

Test [8] concerns Mast/stem cell growth factor receptor Kit (Homo sapiens), P10721 [A829P]. In words: (§1) Selectivity interaction (KinomeScan (DiscoverX)) EUB0001049a KIT. Particulars: at 1 µM.
Test [9] concerns Mast/stem cell growth factor receptor Kit (Homo sapiens), P10721 [D816H]. The description is as §1. The following applies: at 1 µM.
Test [10] has as its system Mast/stem cell growth factor receptor Kit (Homo sapiens), P10721 [L576P]. The test is described as §1. The following applies: at 1 µM.
Test [11] concerns Mast/stem cell growth factor receptor Kit (Homo sapiens), P10721 [V559D,T670I]. The test is described as §1. The following applies: at 1 µM.
Test [12] deals with Mast/stem cell growth factor receptor Kit (Homo sapiens), P10721 [V559D,V654A]. Described as §1. Particulars: at 1 µM.
Test [13] concerns the target Mast/stem cell growth factor receptor Kit (Homo sapiens, UniProt P10721). Described as §1. The following applies: at 1 µM.
The target in test [14] is Ribosomal protein S6 kinase alpha-1 (Homo sapiens, UniProt Q15418). In words: Selectivity interaction (ProQinase) EUB0000171b RPS6KA1.
Test [15] has as its target T3, Serine/threonine-protein kinase Nek9 (Homo sapiens) (UniProt Q8TD19).
T3 sequence (whole entry): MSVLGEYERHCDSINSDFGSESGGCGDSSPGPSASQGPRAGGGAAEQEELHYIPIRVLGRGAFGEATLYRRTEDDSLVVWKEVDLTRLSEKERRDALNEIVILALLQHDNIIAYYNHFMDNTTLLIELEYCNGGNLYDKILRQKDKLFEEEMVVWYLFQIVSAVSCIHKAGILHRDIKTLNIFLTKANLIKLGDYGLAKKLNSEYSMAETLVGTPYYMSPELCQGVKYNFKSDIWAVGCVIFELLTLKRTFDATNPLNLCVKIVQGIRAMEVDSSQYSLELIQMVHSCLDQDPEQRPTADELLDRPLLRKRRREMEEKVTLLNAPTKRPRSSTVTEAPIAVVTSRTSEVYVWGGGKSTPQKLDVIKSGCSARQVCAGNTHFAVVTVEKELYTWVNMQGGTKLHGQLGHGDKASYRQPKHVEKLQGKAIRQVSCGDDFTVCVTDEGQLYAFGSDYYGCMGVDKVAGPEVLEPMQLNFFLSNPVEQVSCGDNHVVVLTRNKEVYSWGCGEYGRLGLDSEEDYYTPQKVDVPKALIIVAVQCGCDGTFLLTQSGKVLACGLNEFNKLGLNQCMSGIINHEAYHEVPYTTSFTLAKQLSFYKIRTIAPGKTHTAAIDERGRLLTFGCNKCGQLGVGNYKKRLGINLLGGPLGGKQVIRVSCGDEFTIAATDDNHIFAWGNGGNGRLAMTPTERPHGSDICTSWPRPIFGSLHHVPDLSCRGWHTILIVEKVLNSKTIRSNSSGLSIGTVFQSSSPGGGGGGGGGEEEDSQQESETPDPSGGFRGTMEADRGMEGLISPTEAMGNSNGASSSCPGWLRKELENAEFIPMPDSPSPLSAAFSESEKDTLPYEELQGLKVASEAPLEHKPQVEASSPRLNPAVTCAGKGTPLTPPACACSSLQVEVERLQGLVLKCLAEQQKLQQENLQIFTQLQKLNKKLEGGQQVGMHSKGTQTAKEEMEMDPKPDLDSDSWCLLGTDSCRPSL
In words: Selectivity interaction (KinomeScan (DiscoverX)) EUB0000092b NEK9. Particulars: at 10 µM.

Molecules are shown by their SMILES.

Chain of Ribosomal protein S6 kinase alpha-1 (Q15418 whole entry): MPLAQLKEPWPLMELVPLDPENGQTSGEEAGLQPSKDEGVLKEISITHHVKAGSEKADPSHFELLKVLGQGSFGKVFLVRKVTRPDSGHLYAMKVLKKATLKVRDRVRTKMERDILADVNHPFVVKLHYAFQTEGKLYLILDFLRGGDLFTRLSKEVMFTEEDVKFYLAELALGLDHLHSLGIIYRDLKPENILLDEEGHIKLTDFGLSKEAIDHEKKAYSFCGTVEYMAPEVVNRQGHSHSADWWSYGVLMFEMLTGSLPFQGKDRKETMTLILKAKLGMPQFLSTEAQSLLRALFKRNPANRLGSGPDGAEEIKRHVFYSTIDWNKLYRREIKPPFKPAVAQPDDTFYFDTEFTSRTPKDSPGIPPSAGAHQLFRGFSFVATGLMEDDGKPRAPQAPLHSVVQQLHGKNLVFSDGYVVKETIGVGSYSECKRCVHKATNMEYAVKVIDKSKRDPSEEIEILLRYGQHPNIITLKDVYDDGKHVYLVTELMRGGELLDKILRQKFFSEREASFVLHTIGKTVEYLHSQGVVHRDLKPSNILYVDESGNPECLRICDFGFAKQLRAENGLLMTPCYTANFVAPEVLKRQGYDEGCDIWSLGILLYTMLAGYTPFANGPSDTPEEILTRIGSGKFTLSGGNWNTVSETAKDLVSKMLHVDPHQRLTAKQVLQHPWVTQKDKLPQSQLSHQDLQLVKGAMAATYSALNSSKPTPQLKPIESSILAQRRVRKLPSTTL
Chain of Mast/stem cell growth factor receptor Kit (Homo sapiens), P10721 [L576P] (P10721 whole entry L576P): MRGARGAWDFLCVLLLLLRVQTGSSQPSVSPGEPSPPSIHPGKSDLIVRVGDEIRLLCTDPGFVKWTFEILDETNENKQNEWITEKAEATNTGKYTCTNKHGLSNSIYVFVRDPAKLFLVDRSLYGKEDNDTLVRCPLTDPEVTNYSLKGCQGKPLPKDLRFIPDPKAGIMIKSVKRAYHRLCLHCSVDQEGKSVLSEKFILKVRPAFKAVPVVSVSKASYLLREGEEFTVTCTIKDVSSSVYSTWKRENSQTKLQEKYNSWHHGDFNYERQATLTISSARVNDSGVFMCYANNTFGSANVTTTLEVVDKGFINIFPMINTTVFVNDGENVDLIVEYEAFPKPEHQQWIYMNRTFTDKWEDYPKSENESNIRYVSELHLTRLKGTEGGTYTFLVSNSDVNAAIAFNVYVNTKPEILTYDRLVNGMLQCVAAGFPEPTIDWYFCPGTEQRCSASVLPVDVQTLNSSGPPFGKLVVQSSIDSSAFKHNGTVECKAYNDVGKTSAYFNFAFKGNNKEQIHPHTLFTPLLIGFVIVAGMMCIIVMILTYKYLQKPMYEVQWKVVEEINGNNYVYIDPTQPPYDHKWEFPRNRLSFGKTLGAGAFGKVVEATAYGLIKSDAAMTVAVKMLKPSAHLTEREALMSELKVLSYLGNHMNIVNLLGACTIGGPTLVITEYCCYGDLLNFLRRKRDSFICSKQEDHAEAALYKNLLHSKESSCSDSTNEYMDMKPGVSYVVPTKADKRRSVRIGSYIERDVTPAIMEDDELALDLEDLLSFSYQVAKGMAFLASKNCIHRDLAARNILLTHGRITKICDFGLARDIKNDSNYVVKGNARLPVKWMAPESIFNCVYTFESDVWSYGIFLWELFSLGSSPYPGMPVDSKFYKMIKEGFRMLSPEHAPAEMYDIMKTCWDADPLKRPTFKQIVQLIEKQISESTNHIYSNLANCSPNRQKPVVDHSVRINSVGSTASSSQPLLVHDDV
Chain of Mast/stem cell growth factor receptor Kit (Homo sapiens), P10721 [A829P] (P10721 whole entry A829P): as the sequence (P10721 whole entry L576P) above, with P576L, A829P counted along it
Chain of Homeodomain-interacting protein kinase 2 (Q9H2X6 whole entry, looked up): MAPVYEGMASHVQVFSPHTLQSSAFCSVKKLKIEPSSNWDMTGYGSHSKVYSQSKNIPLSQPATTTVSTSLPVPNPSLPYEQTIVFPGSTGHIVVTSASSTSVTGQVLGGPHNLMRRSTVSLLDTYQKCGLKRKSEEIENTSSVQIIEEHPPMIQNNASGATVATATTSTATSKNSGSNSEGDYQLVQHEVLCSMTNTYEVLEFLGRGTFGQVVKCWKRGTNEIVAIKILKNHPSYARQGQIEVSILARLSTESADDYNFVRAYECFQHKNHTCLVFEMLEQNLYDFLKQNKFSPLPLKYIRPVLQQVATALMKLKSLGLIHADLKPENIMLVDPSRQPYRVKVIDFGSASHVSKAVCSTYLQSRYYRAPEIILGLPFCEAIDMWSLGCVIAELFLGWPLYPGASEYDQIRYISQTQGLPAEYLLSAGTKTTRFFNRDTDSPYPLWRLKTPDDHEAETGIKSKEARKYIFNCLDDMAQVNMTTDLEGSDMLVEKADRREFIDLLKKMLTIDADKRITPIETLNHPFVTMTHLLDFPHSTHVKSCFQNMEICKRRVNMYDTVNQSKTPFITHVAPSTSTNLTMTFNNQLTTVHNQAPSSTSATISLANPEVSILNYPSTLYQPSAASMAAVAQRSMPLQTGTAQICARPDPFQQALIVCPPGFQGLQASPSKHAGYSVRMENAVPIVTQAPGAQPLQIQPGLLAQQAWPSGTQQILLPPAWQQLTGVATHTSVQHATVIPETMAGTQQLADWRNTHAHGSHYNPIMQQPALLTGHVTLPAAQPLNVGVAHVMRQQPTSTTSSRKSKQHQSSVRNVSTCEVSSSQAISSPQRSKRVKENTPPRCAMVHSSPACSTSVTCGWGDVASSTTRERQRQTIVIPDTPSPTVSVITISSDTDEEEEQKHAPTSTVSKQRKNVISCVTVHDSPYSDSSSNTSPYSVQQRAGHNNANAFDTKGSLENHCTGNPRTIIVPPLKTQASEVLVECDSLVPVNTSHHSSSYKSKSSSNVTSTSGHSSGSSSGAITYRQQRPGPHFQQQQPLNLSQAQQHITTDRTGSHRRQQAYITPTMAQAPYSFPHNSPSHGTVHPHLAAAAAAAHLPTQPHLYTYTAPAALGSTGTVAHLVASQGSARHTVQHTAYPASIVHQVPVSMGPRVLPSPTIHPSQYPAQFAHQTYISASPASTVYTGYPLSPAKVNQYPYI
Chain of Mast/stem cell growth factor receptor Kit (Homo sapiens), P10721 [D816H] (P10721 whole entry D816H): as the sequence (P10721 whole entry L576P) above, with P576L, D816H counted along it

Take `CN(C)C/C=C/C(=O)Nc1ccc(C(=O)N2CCCC(Nc3ncc(Cl)c(-c4c[nH]c5ccccc45)n3)C2)cc1` (stereo unspecified): the % of control in [1] is 33%.
As to `O=C(NOC[C@H](O)CO)c1ccc(F)c(F)c1Nc1ccc(I)cc1F`, the % of control in test [2] amounted to 91%.
As to `COc1cc(N(C)c2ccnc3ccc(C(F)(F)F)cc23)cc(OC)c1OC`, the % binding in test [3] was 87%.
`CN(C)CCOc1ccc(-c2nc(-c3ccncc3)c(-c3ccc4c(c3)CC/C4=N\O)[nH]2)cc1` displayed a % of control in [4] of 19%.
Regarding `N#Cc1cccc(-c2c[nH]c3ncnc(N4CCOCC4)c23)c1`, the % of inhibition in test [5] was -34%.
Consider `CN1Cc2nccc(-c3cn(C)nc3-c3ccc(F)cc3)c2C1=O`, for which, in test [6], the % of inhibition was found to be 4%.
As for `CC[C@@H]1[C@H](F)C(=O)N[C@@H]1COc1nccc2cc(C(N)=O)c(OC)cc12` [ZIMLOVISERTIB], the % of inhibition in test [7] was 1.6%.
For the compound `COc1cc(Nc2nc(C)cc(-c3cnn4nc(OC)ccc34)n2)cc(C(F)(F)F)c1`, the % of control in test [8] was found to be 84%; in [9], 66%; in [10] it was 100%; in test [11] it was 85%; in test [12], 62%; in test [13], 89%.
As to `C=CC(=O)Nc1cccc(C(=O)Nc2ccc(Nc3cc(-c4[nH]c(SC)nc4C)ccn3)cc2)c1`, the results for the % of control in test [14] (at 1 µM) and in [14] (at 5 µM) were 82% and 64%, respectively.
In test [15], `CCC(=O)N1CCN(c2ccc(-n3c(=O)ccc4cnc5ccc(-c6cnc7ccccc7c6)cc5c43)cc2C(F)(F)F)CC1` came in with a % of control of 100%.
